Drawing on US20260265233A1, “BENZOTHIOPHENE DERIVATIVES AS RXFP1 AGONISTS” (BRISTOL-MYERS SQUIBB COMPANY, priority 2021, published 2026), this text covers EC50 for 15 compounds.

As usually defined, the EC50 is the concentration that produces a half-maximal response. Read a low EC50 as an effect from little substance.

The assay has as its target T1, human RXFP1 (Homo sapiens, UniProt Q9HBX9).
T1 construct: expressed in transfected cells
T1 sequence (Q9HBX9 1-757): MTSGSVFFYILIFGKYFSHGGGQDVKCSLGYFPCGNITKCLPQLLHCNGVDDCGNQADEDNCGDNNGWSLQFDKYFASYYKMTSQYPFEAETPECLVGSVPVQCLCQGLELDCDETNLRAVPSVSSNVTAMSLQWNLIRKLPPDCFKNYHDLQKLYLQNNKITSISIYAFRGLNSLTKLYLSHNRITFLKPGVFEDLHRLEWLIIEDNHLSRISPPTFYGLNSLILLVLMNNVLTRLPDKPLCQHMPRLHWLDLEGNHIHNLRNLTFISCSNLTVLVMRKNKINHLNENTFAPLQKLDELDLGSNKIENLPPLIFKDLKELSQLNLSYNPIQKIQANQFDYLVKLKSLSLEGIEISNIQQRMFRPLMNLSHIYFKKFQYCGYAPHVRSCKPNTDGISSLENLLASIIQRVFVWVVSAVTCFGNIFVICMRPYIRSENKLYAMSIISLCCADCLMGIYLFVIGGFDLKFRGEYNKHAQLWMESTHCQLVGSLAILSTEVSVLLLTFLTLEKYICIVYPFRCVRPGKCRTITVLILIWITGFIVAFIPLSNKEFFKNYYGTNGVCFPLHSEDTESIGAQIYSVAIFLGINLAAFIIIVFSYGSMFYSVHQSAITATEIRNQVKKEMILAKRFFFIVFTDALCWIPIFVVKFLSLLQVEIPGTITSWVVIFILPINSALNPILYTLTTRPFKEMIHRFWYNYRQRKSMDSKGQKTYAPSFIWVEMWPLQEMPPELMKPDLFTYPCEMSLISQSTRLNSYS
The assay is described as follows: hRXFP1 HEK293 cAMP assay (HTRF). Type of assay: cell-based. Conditions: HEK293 cells stably expressing human RXFP1; 30 min at rt; intracellular cAMP by HTRF. Here is the method:
RXFP1 Cyclic Adenosine Monophosphate (cAMP) Assays. Human embryonic kidney cells 293 (HEK293) cells and HEK293 cells stably expressing human RXFP1, were cultured in MEM medium supplemented with 10% qualified FBS, and 300 μg/ml hygromycin (Life Technologies). Cells were dissociated and suspended in assay buffer. The assay buffer was HBSS buffer (with calcium and magnesium) containing 20 mM HEPES, 0.05% BSA, and 0.5 mM IBMX. Cells (3000 cells per well, except 1500 cell per well for HEK293 cells stably expressing human RXFP1) were added to 384-well Proxiplates (Perkin-Elmer). Cells were immediately treated with test compounds in DMSO (2% final) at final concentrations in the range of 0.010 nM to 50 μM. Cells were incubated for 30 min at rt. The level of intracellular cAMP was determined using the HTRF HiRange cAMP assay reagent kit (Cisbio) according to manufacturer's instructions. Solutions of cryptate conjugated anti-cAMP and d2 fluorophore-labelled cAMP were made in a supplied lysis buffer separately. Upon completion of the reaction, the cells were lysed with equal volume of the d2-cAMP solution and anti-cAMP solution. After a 1 h rt incubation, time-resolved fluorescence intensity was measured using the Envision (Perkin-Elmer) at 400 nm excitation and dual emission at 590 nm and 665 nm. A calibration curve was constructed with an external cAMP standard at concentrations ranging from 2.7 μM to 0.1 pM by plotting the fluorescent intensity ratio from 665 nm emission to the intensity from the 590 nm emission against cAMP concentrations. The potency and activity of a compound to […] cAMP production was then determined by fitting to a 4-parametric logistic equation from a plot of cAMP level versus compound concentrations.
The examples disclosed below were tested in the human RXFP1 (hRXFP1) HEK293 cAMP assay described above and found to have agonist activity.
(Cyclic AMP is a second messenger, typically raised through Gs and lowered through Gi signalling.)
“2-(3′-((2-((4-fluoro-3-(trifluoromethyl) phenyl) carbamoyl)-6-(trifluoromethyl) benzo[b]thiophen-3-yl) carbamoyl)-4′-methoxy-[1, 1′-biphenyl]-3-yl)-2-(tetrahydro-2H-pyran-4-carboxamido) acetic acid [Example 26]” came in with a concentration for a half-maximal effect (EC50) of 153 nM.

Take `COc1ccc(N2CCCC(C(=O)O)C2)cc1C(=O)Nc1c(C(=O)Nc2ccc(F)c(C(F)(F)F)c2)sc2cc(C(F)(F)F)ccc12` (single isomer, unassigned) [Example 4, 1-(3-((2-((4-fluoro-3-(trifluoromethyl)phenyl)carbamoyl)-6-(trifluoromethyl)benzo[b]thiophen-3-yl)carbamoyl)-4-methoxyphenyl) piperidine-3-carboxylic acid]: the 50% effective concentration (EC50) was 375 nM. Against the preceding compound, the EC50 is about 2.5-fold higher.

`COc1ccc(N2CCCC(C(=O)O)C2)cc1C(=O)Nc1c(C(=O)Nc2ccc(F)c(C(F)(F)F)c2)sc2cc(C(F)(F)F)ccc12` (single isomer, unassigned) [Example 5, 1-(3-((2-((4-fluoro-3-(trifluoromethyl)phenyl)carbamoyl)-6-(trifluoromethyl)benzo[b]thiophen-3-yl)carbamoyl)-4-methoxyphenyl) piperidine-3-carboxylic acid] yielded an EC50 of 150 nM.

The compound `COc1ccc(N2CCCC(C(=O)NS(C)(=O)=O)C2)cc1C(=O)Nc1c(C(=O)Nc2ccc(F)c(C(F)(F)F)c2)sc2cc(C(F)(F)F)ccc12` (single isomer, unassigned) [Example 6, 1-(3-((2-((4-fluoro-3-(trifluoromethyl)phenyl)carbamoyl)-6-(trifluoromethyl)benzo[b]thiophen-3-yl)carbamoyl)-4-methoxyphenyl)-N-(methylsulfonyl) piperidine-3-carboxamide] gave a half-maximal effective concentration (EC50) of 349 nM. Compared with the last compound, the EC50 is about 2.3-fold higher.

For `COc1ccc(N2CCCC(C(=O)NCC(C)(C)O)C2)cc1C(=O)Nc1c(C(=O)Nc2ccc(F)c(C(F)(F)F)c2)sc2cc(C(F)(F)F)ccc12` (single isomer, unassigned) [Example 7, 1-(3-((2-((4-fluoro-3-(trifluoromethyl)phenyl)carbamoyl)-6-(trifluoromethyl)benzo[b]thiophen-3-yl)carbamoyl)-4-methoxyphenyl)-N-(2-hydroxy-2-methylpropyl) piperidine-3-carboxamide], the EC50 turned out to be 661 nM. Compared with the last compound, the EC50 is about 1.9-fold higher.

In the case of `COc1ccc(N2CCCC(C(=O)NCC(C)(C)O)C2)cc1C(=O)Nc1c(C(=O)Nc2ccc(F)c(C(F)(F)F)c2)sc2cc(C(F)(F)F)ccc12` (single isomer, unassigned) [Example 8, 1-(3-((2-((4-fluoro-3-(trifluoromethyl)phenyl)carbamoyl)-6-(trifluoromethyl)benzo[b]thiophen-3-yl)carbamoyl)-4-methoxyphenyl)-N-(2-hydroxy-2-methylpropyl) piperidine-3-carboxamide], the 50% effective concentration (EC50) was determined as 2020 nM.

As for `COc1ccc(N2CCC(NCCO)C2)cc1C(=O)Nc1c(C(=O)Nc2ccc(F)c(C(F)(F)F)c2)sc2cc(C(F)(F)F)ccc12` (single isomer, unassigned) [Example 9, N-(4-fluoro-3-(trifluoromethyl)phenyl)-3-(5-(3-((2-hydroxyethyl)amino)pyrrolidin-1-yl)-2-methoxybenzamido)-6-(trifluoromethyl) benzo[b]thiophene-2-carboxamide], the concentration giving a half-maximal response (EC50) worked out at 2380 nM.

For `COc1ccc(-c2cc(C(NC(=O)C3CCOCC3)C(F)(F)F)ccc2F)cc1C(=O)Nc1c(C(=O)Nc2ccc(F)c(C(F)(F)F)c2)sc2cc(C(F)(F)F)ccc12` (single isomer, unassigned) [Example 20, N-(2,2,2-trifluoro-1-(6-fluoro-3′-((2-((4-fluoro-3-(trifluoromethyl)phenyl)carbamoyl)-6-(trifluoromethyl)benzo[b]thiophen-3-yl)carbamoyl)-4′-methoxy-[1,1′-biphenyl]-3-yl)ethyl)tetrahydro-2H-pyran-4-carboxamide], a half-maximal effect (EC50) was put at 954 nM.

As to `COc1ccc(-c2cc(C(NC(=O)C3CCOCC3)C(F)(F)F)ccc2F)cc1C(=O)Nc1c(C(=O)Nc2ccc(F)c(C(F)(F)F)c2)sc2cc(C(F)(F)F)ccc12` (single isomer, unassigned) [Example 21, N-(2,2,2-trifluoro-1-(6-fluoro-3′-((2-((4-fluoro-3-(trifluoromethyl)phenyl)carbamoyl)-6-(trifluoromethyl)benzo[b]thiophen-3-yl)carbamoyl)-4′-methoxy-[1,1′-biphenyl]-3-yl)ethyl)tetrahydro-2H-pyran-4-carboxamide], the EC50 turned out to be 363 nM.

Regarding `COc1ccc(-c2cnc(C3(O)CCS(=O)(=O)C3)nc2)cc1C(=O)Nc1c(C(=O)Nc2ccc(F)c(C(F)(F)F)c2)sc2cc(C(F)(F)F)ccc12` (single isomer, unassigned) [Example 23, N-(4-fluoro-3-(trifluoromethyl)phenyl)-3-(5-(2-(3-hydroxy-1,1-dioxidotetrahydrothiophen-3-yl)pyrimidin-5-yl)-2-methoxybenzamido)-6-(trifluoromethyl)benzo[b]thiophene-2-carboxamide], the EC50 is 3100 nM. This EC50 is about 8.5-fold higher than that of the compound before.

As for `COc1ccc(-c2cnc(C3(O)CCS(=O)(=O)C3)nc2)cc1C(=O)Nc1c(C(=O)Nc2ccc(F)c(C(F)(F)F)c2)sc2cc(C(F)(F)F)ccc12` (single isomer, unassigned) [Example 24, N-(4-fluoro-3-(trifluoromethyl)phenyl)-3-(5-(2-(3-hydroxy-1,1-dioxidotetrahydrothiophen-3-yl)pyrimidin-5-yl)-2-methoxybenzamido)-6-(trifluoromethyl)benzo[b]thiophene-2-carboxamide], the response was half-maximal at 3360 nM (EC50).

With `COc1ccc(-c2cccc(C(NC(=O)C3CCOCC3)C(=O)O)c2)cc1C(=O)Nc1c(C(=O)Nc2ccc(F)c(C(F)(F)F)c2)sc2cc(C(F)(F)F)ccc12` (single isomer, unassigned) [Example 25, 2-(3′-((2-((4-fluoro-3-(trifluoromethyl)phenyl)carbamoyl)-6-(trifluoromethyl)benzo[b]thiophen-3-yl)carbamoyl)-4′-methoxy-[1, 1′-biphenyl]-3-yl)-2-(tetrahydro-2H-pyran-4-carboxamido) acetic acid], the EC50 was found to be 3.8 nM.

In the case of `COc1ccc(C2CCCC(O)C2)cc1C(=O)Nc1c(C(=O)Nc2ccc(F)c(C(F)(F)F)c2)sc2cc(C(F)(F)F)ccc12` (single isomer, unassigned) [Example 32, N-(4-fluoro-3-(trifluoromethyl)phenyl)-3-(5-(3-hydroxycyclohexyl)-2-methoxybenzamido)-6-(trifluoromethyl)benzo[b]thiophene-2-carboxamide], it took 718 nM to reach a half-maximal effect (EC50).

In turn, `COc1ccc(C2CCCC(O)C2)cc1C(=O)Nc1c(C(=O)Nc2ccc(F)c(C(F)(F)F)c2)sc2cc(C(F)(F)F)ccc12` (single isomer, unassigned) [Example 33, N-(4-fluoro-3-(trifluoromethyl)phenyl)-3-(5-(3-hydroxycyclohexyl)-2-methoxybenzamido)-6-(trifluoromethyl)benzo[b]thiophene-2-carboxamide] had a half-maximal effective concentration (EC50) of 216 nM. This EC50 is about 3.3-fold lower than that of the compound before.

Turning to `COc1ccc(C2CCCC(C)(O)C2)cc1C(=O)Nc1c(C(=O)Nc2ccc(F)c(C(F)(F)F)c2)sc2cc(C(F)(F)F)ccc12` (single isomer, unassigned) [Example 34, N-(4-fluoro-3-(trifluoromethyl)phenyl)-3-(5-(3-hydroxy-3-methylcyclohexyl)-2-methoxybenzamido)-6-(trifluoromethyl)benzo[b]thiophene-2-carboxamide], the midpoint of the response, the EC50, lay at 850 nM.
